Experimental data taken from PMC6112376, “Comprehensive Analyses and Prioritization of Tox21 10K Chemicals Affecting Mitochondrial Function by in-Depth Mechanistic Studies” (Environmental Health Perspectives, 2018).
Where two headings read alike, the source gives them in different places.

What was measured:
hNSC = assay: MMP assay in human neural stem cells (hNSC); format: cell-based; settings: mean±SD of three experiments
HepG2 cells [1] = assay: ROS-Glo hydrogen peroxide (ROS) assay; format: cell-based, human; settings: 2 h treatment; mean±SD of three experiments
HepG2 cells [2] = assay: Intracellular ATP content (cell viability) assay; format: cell-based, human; settings: for IC50: 40 h treatment, mean±SD of three experiments
[3] = system: p53 (p53-bla HCT-116 cells); assay: p53 β-lactamase reporter gene assay; format: cell-based, human; settings: 16 h incubation; mean±SD of three experiments
[4] = system: Nrf2/ARE (ARE-bla HepG2 cells); assay: ARE β-lactamase reporter gene assay; format: cell-based, human
[5] = system: isolated rat liver mitochondria; assay: Oxygen consumption, Clark-type oxygen electrode; format: biochemical; settings: for I-ADP, % of control (O2 consumption rate): glutamate/malate driven state 3 respiration; for I-ADP, % of control (O2 consumption rate) / I-sub, % of control (O2 consumption rate) / II-ADP, % of control (O2 consumption rate) / II-sub, % of control (O2 consumption rate): isolated rat liver mitochondria; for I-sub, % of control (O2 consumption rate): glutamate/malate driven state 4 respiration; for II-ADP, % of control (O2 consumption rate): succinate-driven state 3 respiration; for II-sub, % of control (O2 consumption rate): succinate-driven state 4 respiration
HepG2 cells [6] = assay: Oxygen consumption, Seahorse XF24 analyzer; format: cell-based, human; settings: Seahorse XF24; HepG2 cells; 25 mM glucose; 1, 4, 16, and 64μM
[7] = system: mitochondrial respiratory chain complex I; format: biochemical, rat; settings: at 100μM
[8] = biological target: T1, mitochondrial respiratory chain complex II (Rattus norvegicus, UniProt P21913+Q641Z9+Q6PCT8+Q920L2); assay: Respiratory chain complex II activity; format: biochemical; settings: at 100μM; mean±SD of three experiments
T1 construct: Submitochondrial particles were prepared by subjecting the intact rat mitochondria, isolated as described above, to three successive freeze–thaw cycles; from tissue; host or cells: rat liver mitochondria (submitochondrial particles)

[9] = system: mitochondrial respiratory chain complex III; format: biochemical, rat; settings: at 100μM
[10] = system: mitochondrial respiratory chain complex IV; format: biochemical, rat
[11] = system: mitochondrial respiratory chain complex V; format: biochemical, rat
[12] = system: HeLa cells expressing YFP-Parkin; assay: Parkin translocation assay; format: cell-based, human; settings: HeLa cells stably expressing YFP-Parkin; treated for 2 h
HepG2 cells [13] = system: HepG2 cells
HepG2 cells [14] = settings: cited from earlier work
[15] = system: Caenorhabditis elegans strain PE255; assay: In vivo C. elegans ATP status assay
rat primary hepatocytes = assay: MMP assay in rat primary hepatocytes
[16] = system: Caenorhabditis elegans (Bristol N2); assay: C. elegans larval development and growth assay

T1 sequence (Q920L2 35-656): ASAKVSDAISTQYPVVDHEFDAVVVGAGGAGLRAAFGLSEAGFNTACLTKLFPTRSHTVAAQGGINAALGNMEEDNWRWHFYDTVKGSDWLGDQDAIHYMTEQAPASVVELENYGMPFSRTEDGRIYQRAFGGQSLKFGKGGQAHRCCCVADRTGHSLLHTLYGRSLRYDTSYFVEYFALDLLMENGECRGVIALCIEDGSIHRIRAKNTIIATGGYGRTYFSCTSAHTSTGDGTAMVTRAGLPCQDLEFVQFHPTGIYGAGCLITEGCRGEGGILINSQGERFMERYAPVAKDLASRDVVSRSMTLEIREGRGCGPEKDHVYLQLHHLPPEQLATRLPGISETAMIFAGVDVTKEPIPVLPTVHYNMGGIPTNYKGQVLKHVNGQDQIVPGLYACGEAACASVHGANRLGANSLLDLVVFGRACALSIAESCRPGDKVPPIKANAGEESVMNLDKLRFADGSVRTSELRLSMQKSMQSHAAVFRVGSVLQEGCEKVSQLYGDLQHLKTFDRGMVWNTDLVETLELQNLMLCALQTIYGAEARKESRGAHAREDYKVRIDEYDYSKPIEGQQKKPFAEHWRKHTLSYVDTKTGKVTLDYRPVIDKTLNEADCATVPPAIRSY
T1 sequence (P21913 31-282): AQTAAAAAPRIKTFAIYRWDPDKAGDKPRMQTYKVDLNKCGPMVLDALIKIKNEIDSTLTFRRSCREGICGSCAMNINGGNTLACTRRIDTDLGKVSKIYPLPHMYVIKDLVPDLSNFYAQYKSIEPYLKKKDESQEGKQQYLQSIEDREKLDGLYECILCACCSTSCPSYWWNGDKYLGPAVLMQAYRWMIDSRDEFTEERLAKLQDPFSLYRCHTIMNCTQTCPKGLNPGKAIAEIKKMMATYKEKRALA
T1 sequence (Q641Z9 1-169): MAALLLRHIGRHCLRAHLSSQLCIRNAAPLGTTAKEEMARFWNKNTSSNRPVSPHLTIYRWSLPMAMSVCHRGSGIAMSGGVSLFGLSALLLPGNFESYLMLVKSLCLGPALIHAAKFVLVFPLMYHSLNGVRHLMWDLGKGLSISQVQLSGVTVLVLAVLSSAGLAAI
T1 sequence (Q6PCT8 57-159): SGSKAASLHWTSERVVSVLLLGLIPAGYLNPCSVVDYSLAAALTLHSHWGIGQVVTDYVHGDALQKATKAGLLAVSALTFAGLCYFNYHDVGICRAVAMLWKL

Structure (SMILES): Cl.N=C1C=CC(=C(c2ccc(N)cc2)c2ccc(N)cc2)C=C1 [C.I. Basic red 9 monohydrochloride]
- IC50 (hNSC; 1 h treatment, fresh re-sourced stocks, read-out: hNSC IC50 (MMP)): 2550 ± 580 nM
- hNSC (efficacy) (MMP) (hNSC; % of positive control): −70.3±7.17%
- ROS (HepG2) EC50 (HepG2 cells [1]): Inactive
- IC50 (HepG2 cells [2]; 5 mM glucose, read-out: ATP (HepG2, glucose) IC50): 9.72 ± 5.01 µM
- ATP (HepG2, glucose) (efficacy) (HepG2 cells [2]; 5 mM glucose, % of positive control): −101±8.17%
- IC50 (HepG2 cells [2]; 10 mM galactose, read-out: ATP (HepG2, galactose) IC50): 6.25 ± 2.01 µM
- ATP (HepG2, galactose) (efficacy) (HepG2 cells [2]; 10 mM galactose, % of positive control): −98.4±12.9%
- p53 (HCT-116) EC50 [3]: Inactive
- EC50 ([4]; 16 h incubation, mean±SD of three experiments, read-out: ARE (HepG2) EC50): 11.7 ± 7.37 µM
- ARE (HepG2) (efficacy) ([4]; % of positive control): 107±42.3%
- I-ADP, % of control (O2 consumption rate) ([5]; 0.8 µM): 94 (41.0) % of control
- I-sub, % of control (O2 consumption rate) ([5]; 0.8 µM): 100 (13.1) % of control
- II-ADP, % of control (O2 consumption rate) ([5]; 0.8 µM): 97 (65.8) % of control
- II-sub, % of control (O2 consumption rate) ([5]; 0.8 µM): 96 (20.1) % of control
- I-ADP, % of control (O2 consumption rate) ([5]; 4 µM): 82 (35.8) % of control
- I-sub, % of control (O2 consumption rate) ([5]; 4 µM): 92 (12.1) % of control
- II-ADP, % of control (O2 consumption rate) ([5]; 4 µM): 93 (63.1) % of control
- II-sub, % of control (O2 consumption rate) ([5]; 4 µM): 101 (21.1) % of control
- I-ADP, % of control (O2 consumption rate) ([5]; 20 µM): 64 (27.9) % of control
- I-sub, % of control (O2 consumption rate) ([5]; 20 µM): 106 (13.9) % of control
- II-ADP, % of control (O2 consumption rate) ([5]; 20 µM): 66 (44.4) % of control
- II-sub, % of control (O2 consumption rate) ([5]; 20 µM): 110 (22.9) % of control
- I-ADP, % of control (O2 consumption rate) ([5]; 100 µM): 17 (9.1) % of control
- I-sub, % of control (O2 consumption rate) ([5]; 100 µM): 94 (12.7) % of control
- II-ADP, % of control (O2 consumption rate) ([5]; 100 µM): 31 (21.0) % of control
- II-sub, % of control (O2 consumption rate) ([5]; 100 µM): 96 (20.8) % of control
- effect on mitochondrial respiration (in words) ([5]; Clark-type oxygen electrode, concentrations up to 100μM): moderate inhibitory effect on state 3 respiration driven by both glutamate/malate and succinate, but not on state 4 respiration
- Potential Mechanism ([5]; mitochondrial respiration in isolated rat liver mitochondria, Clark type oxygen electrode, over tested concentrations): Inhibitor
- Activity in oxygen consumption (HepG2 cells [6]): Inhibitor
- Complex I % inhibition [7]: 14.1±2.98 at 100μM %
- Complex II % inhibition [8]: 12.2±3.48 at 100μM %
- Complex III % inhibition [9]: 21.6±6.41 at 100μM %
- Complex IV % inhibition (activity call) [10]: Inactive
- Complex V % inhibition (activity call) [11]: Inactive
- Parkin recruitment [12]: Inactive
- HepG2 (efficacy) Glucose (MMP) (HepG2 cells [13]; 5 mM glucose, % of positive control, mean±SD of three experiments): −97.1±6.48%
- HepG2 (efficacy) Galactose (MMP) (HepG2 cells [13]; 10 mM galactose, % of positive control, mean±SD of three experiments): −89.4±4.30%
- MMP assays efficacy (%) HepG2 (HepG2 cells [13]; HepG2 cells, single number from one experiment): -94%
- IC50 (HepG2 cells [13]; read-out: HepG2 IC50 Galactose (MMP), 10 mM galactose, no glucose, 1 h treatment, mean±SD of three experiments): 2.53 ± 0.46 µM
- IC50 (HepG2 cells [13]; read-out: HepG2 IC50 Glucose (MMP), 5 mM glucose, 1 h treatment, fresh re-sourced stocks, mean±SD of three experiments): 1.66 ± 0.28 µM
- IC50 (HepG2 cells [13]; read-out: MMP assays IC50 (µM) HepG2, HepG2 cells, single number from one experiment): 0.56 µM
- MMP assays efficacy (%) qHTS-HepG2 (HepG2 cells [14]): -95±11%
- IC50 (HepG2 cells [14]; read-out: MMP assays IC50 (µM) qHTS-HepG2): 0.08 ± 0.02 µM
- LUM: mean difference in luminescence (ATP content) relative to plate controls ([15]; 0.5 µM): 0.1703
- LUM: mean difference in luminescence (ATP content) relative to plate controls ([15]; 1 µM): 0.2203
- LUM: mean difference in luminescence (ATP content) relative to plate controls ([15]; 5 µM): 0.7285
- LUM: mean difference in luminescence (ATP content) relative to plate controls ([15]; 10 µM): 0.8296
- LUM: mean difference in luminescence (ATP content) relative to plate controls ([15]; 25 µM): 1.533
- LUM: mean difference in luminescence (ATP content) relative to plate controls ([15]; 50 µM): 2.0258
- LUM: mean difference in luminescence (ATP content) relative to plate controls ([15]; 75 µM): 2.358
- LUM: mean difference in luminescence (ATP content) relative to plate controls ([15]; 100 µM): 2.677
- LEC (lowest effect concentration), ATP assay ([15]; 24 h exposure): ≤ 10 µM
- LEC LUM: lowest effect concentration for luminescence, a measure of nematode ATP content ([15]; C. elegans ATP, JT trend test, Bonferoni correction p<0.05): 5 µM
- Rat hepatocytes (efficacy) (MMP) (rat primary hepatocytes; % of positive control, mean±SD of three experiments): −90.3±2.77%
- MMP assays efficacy (%) Rat Hepatocytes (rat primary hepatocytes; rat hepatocytes, mean ± SD of three experiments): -96±23%
- IC50 (rat primary hepatocytes; read-out: MMP assays IC50 (µM) Rat Hepatocytes, rat hepatocytes, mean ± SD of three experiments): 4.11 ± 4.24 µM
- IC50 (rat primary hepatocytes; read-out: Rat hepatocytes IC50 (MMP), 1 h treatment, fresh re-sourced stocks, mean±SD of three experiments): 6.3 ± 0.43 µM
- EXT: mean difference in nematode size relative to plate controls ([16]; 0.5 µM): 0.03177
- EXT: mean difference in nematode size relative to plate controls ([16]; 1 µM): -0.03542
- EXT: mean difference in nematode size relative to plate controls ([16]; 5 µM): 0.06311
- EXT: mean difference in nematode size relative to plate controls ([16]; 10 µM): 0.04374
- EXT: mean difference in nematode size relative to plate controls ([16]; 25 µM): 0.1555
- EXT: mean difference in nematode size relative to plate controls ([16]; 50 µM): 0.3061
- EXT: mean difference in nematode size relative to plate controls ([16]; 75 µM): 1.032
- EXT: mean difference in nematode size relative to plate controls ([16]; 100 µM): 1.117
- LEC EXT: lowest effect concentration for extinction, a measure of nematode size ([16]; C. elegans larval growth, JT trend test, Bonferoni correction p<0.05): 50 µM
